Test results reported in patent US9278981B2, “Compounds and compositions for inhibiting the activity of ABL1, ABL2 and BCR-ABL1” (Novartis AG, priority 2012, dated 2016).

Columns and labels:
ABL1 (64-515) [1] = target: T1, ABL1 (64-515) (Homo sapiens (Human), UniProt P00519); test: Radio ABL1 (64-515) assay (radiometric filter-binding); assay type: biochemical
ABL1 (64-515) [2] = target: T1, ABL1 (64-515); test: Caliper ABL1 (64-515) assay (microfluidic mobility shift); assay type: biochemical

T1 sequence (P00519 64-515): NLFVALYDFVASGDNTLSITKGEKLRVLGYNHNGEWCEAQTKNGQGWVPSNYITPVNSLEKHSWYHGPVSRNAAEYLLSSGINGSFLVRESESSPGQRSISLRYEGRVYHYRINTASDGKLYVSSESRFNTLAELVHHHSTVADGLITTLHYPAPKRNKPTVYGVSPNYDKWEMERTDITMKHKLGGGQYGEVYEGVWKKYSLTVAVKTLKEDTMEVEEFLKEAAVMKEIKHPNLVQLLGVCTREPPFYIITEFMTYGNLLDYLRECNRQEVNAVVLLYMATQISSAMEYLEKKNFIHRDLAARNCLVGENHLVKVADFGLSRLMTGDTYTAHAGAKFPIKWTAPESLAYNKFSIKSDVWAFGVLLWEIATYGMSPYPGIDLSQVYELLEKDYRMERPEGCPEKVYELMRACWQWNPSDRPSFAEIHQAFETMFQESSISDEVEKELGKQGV

Structure (SMILES)	IC50 (ABL1 (64-515) [1])	IC50 (ABL1 (64-515) [2])
O=C(Nc1ccc(OC(F)(F)F)cc1)c1cnc(N2C3COCC2COC3)c(-c2cncnc2)c1 [Example 150, 6-(3,7-Dioxa-9-azabicyclo[3.3.1]nonan-9-yl)-5-(pyrimidin-5-yl)-N-(4-(trifluoromethoxy)phenyl)nicotinamide]	4 nM	6.5 nM
CC(C)(C)Oc1ccc(NC(=O)c2cnc(N3CC[C@@H](O)C3)c(-c3cncnc3)c2)cc1 [Example 219, (R)—N-(4-(tert-Butoxy)phenyl)-6-(3-hydroxypyrrolidin-1-yl)-5-(pyrimidin-5-yl)nicotinamide]	16 nM	16 nM
O=C(Nc1ccc(OC(F)(F)F)cc1)c1cnc(N2CCOCC2)c(-c2ccc(CO)nc2)c1 [Example 149, 6′-(Hydroxymethyl)-2-morpholino-N-(4-(trifluoromethoxy)phenyl)-[3,3′-bipyridine]-5-carboxamide]	3 nM	2.6 nM
COC(=O)c1cc(F)cc(-c2cc(C(=O)Nc3ccc(OC(F)(F)F)cc3)cnc2N2CC[C@@H](O)C2)c1 [Example 62, (R)-Methyl 3-fluoro-5-(2-(3-hydroxypyrrolidin-1-yl)-5-((4-(trifluoromethoxy)phenyl)carbamoyl)pyridin-3-yl)benzoate]	4 nM	2.1 nM
N#Cc1cncc(-c2cc(C(=O)Nc3ccc(OC(F)(F)F)c(F)c3)cnc2N2CC[C@H](CO)C2)c1 [Example 203, (S)-5′-Cyano-N-(3-fluoro-4-(trifluoromethoxy)phenyl)-2-(3-(hydroxymethyl)pyrrolidin-1-yl)-[3,3′-bipyridine]-5-carboxamide]	1 nM	0.9 nM
CN(CCO)c1ncc(C(=O)Nc2ccc(OC(F)(F)Cl)cc2)cc1-c1cncc(F)c1 [Example 180, N-(4-(Chlorodifluoromethoxy)phenyl)-5′-fluoro-2-((2-hydroxyethyl)(methyl)amino)-[3,3′-bipyridine]-5-carboxamide]	1 nM	0.4 nM
O=C(Nc1ccc(OC(F)(F)Cl)cc1)c1cnc(N2CC(O)C2)c(-c2cncnc2)c1 [Example 258]	2.7 nM	1.1 nM
O=C(Nc1ccc(OC(F)(F)Cl)cc1)c1cnc(N2CCNC3(CC3)C2)c(-c2cncnc2)c1 [Example 256]	2 nM	0.4 nM
CCN(CCO)c1ncc(C(=O)Nc2ccc(SC(F)(F)F)cc2)cc1-c1cncc(F)c1 [Example 196, 2-(Ethyl(2-hydroxyethyl)amino)-5′-fluoro-N-(4-((trifluoromethyl)thio)phenyl)-[3,3′-bipyridine]-5-carboxamide]	5.1 nM	0.7 nM
CC(=O)NC[C@H]1CCN(c2ncc(C(=O)Nc3ccc(OC(F)(F)Cl)cc3)cc2-c2cncnc2)C1 [Example 178, (R)-6-(3-(Acetamidomethyl)pyrrolidin-1-yl)-N-(4-(chlorodifluoromethoxy)phenyl)-5-(pyrimidin-5-yl)nicotinamide]	13 nM	0.4 nM
O=C(Nc1ccc(OC(F)(F)F)cc1)c1cnc(N2CC[C@@H](O)C2)c(-c2cnc(Cl)c(F)c2)c1 [Example 53, (R)-6′-Chloro-5′-fluoro-2-(3-hydroxypyrrolidin-1-yl)-N-(4-(trifluoromethoxy)phenyl)-[3,3′-bipyridine]-5-carboxamide]	< 3 nM	0.4 nM
CC(F)(F)Oc1ccc(NC(=O)c2cnc(N3CC[C@@H](O)C3)c(-c3cncc(C#N)c3)c2)cc1 [Example 276]	3 nM	6.8 nM
O=C(Nc1ccc(SC(F)(F)F)nc1)c1cnc(N2CC[C@@H](O)C2)c(-c2cncnc2)c1 [Example 279, (R)-6-(3-Hydroxypyrrolidin-1-yl)-5-(pyrimidin-5-yl)-N-(6-((trifluoromethyl)thio)pyridin-3-yl)nicotinamide]	3 nM	8 nM
Cc1ncccc1-c1cc(C(=O)Nc2ccc(OC(F)(F)Cl)cc2)cnc1N1CC[C@@H](O)C1 [Example 270]	2 nM	0.6 nM
Cc1ccc(-c2cc(C(=O)Nc3ccc(OC(F)(F)F)cc3)ccc2N2C[C@H](O)[C@@H](O)C2)cn1 [Example 9, 4-((3S,4S)-3,4-Dihydroxypyrrolidin-1-yl)-3-(6-methylpyridin-3-yl)-N-(4-(trifluoromethoxy)phenyl)benzamide]	17 nM	1.8 nM
CC(F)(F)Oc1ccc(NC(=O)c2cnc(N3CC[C@@H](O)C3)c(-c3cncc(F)c3)c2)cc1 [Example 275]	5 nM	2.8 nM
O=C(Nc1ccc(S(F)(F)(F)(F)F)cc1)c1cnc(N2CC[C@@H](O)C2)c(-c2cncc(F)c2)c1 [Example 277]	2 nM	1.7 nM

The next lines start with the values.

IC50 (ABL1 (64-515) [1])	IC50 (ABL1 (64-515) [2])	Structure (SMILES)
5 nM	0.6 nM	O=C(Nc1ccc(OC(F)(F)F)cc1)c1cnc(N2CC(CO)C2)c(-c2cncc(F)c2)c1 [Example 139, 5′-Fluoro-2-(3-(hydroxymethyl)azetidin-1-yl)-N-(4-(trifluoromethoxy)phenyl)-[3,3′-bipyridine]-5-carboxamide]
< 0.1 nM	0.7 nM	CN(C)[C@H]1CN(c2ncc(C(=O)Nc3ccc(OC(F)(F)Cl)cc3)cc2-c2cncnc2)C[C@@H]1O [Example 251]
4 nM	6 nM	CC(C)(O)c1cc(F)cc(-c2cc(C(=O)Nc3ccc(OC(F)(F)F)cc3)cnc2N2CC[C@@H](O)C2)c1 [Example 60, (R)-5-(3-Fluoro-5-(2-hydroxypropan-2-yl)phenyl)-6-(3-hydroxypyrrolidin-1-yl)-N-(4-(trifluoromethoxy)phenyl)nicotinamide]
1 nM	0.6 nM	O=C(Nc1ccc(OC(F)(F)Cl)cc1)c1cnc(N2C[C@@H](O)[C@@H](O)C2)c(-c2cncc(F)c2)c1 [Example 264]
< 3 nM	2 nM	CCN(CCO)c1ncc(C(=O)Nc2ccc(OC(F)(F)F)cc2)cc1-c1cncc(F)c1 [Example 157, 2-(Ethyl(2-hydroxyethyl)amino)-5′-fluoro-N-(4-(trifluoromethoxy)phenyl)-[3,3′-bipyridine]-5-carboxamide]
< 3 nM	3.5 nM	O=C(Nc1ccc(OC(F)(F)F)cc1)c1cnc(N2CCC3(COC3)C2)c(-c2cncnc2)c1 [Example 116, 5-(Pyrimidin-5-yl)-6-(2-oxa-6-azaspiro[3.4]octan-6-yl)-N-(4-(trifluoromethoxy)phenyl)nicotinamide]
3 nM	1.2 nM	CC1(O)CN(c2ncc(C(=O)Nc3ccc(OC(F)(F)F)cc3)cc2-c2cccnc2)C1 [Example 130, 2-(3-Hydroxy-3-methylazetidin-1-yl)-N-(4-(trifluoromethoxy)phenyl)-[3,3′-bipyridine]-5-carboxamide]
2 nM	0.8 nM	N#Cc1ccncc1-c1cc(C(=O)Nc2ccc(OC(F)(F)Cl)cc2)cnc1N1C[C@H](O)[C@@H](O)C1 [Example 290, N-(4-(Chlorodifluoromethoxy)phenyl)-4′-cyano-2-((3S,4S)-3,4-dihydroxypyrrolidin-1-yl)-[3,3′-bipyridine]-5-carboxamide]
1 nM	0.3 nM	NC[C@@H]1CCN(c2ncc(C(=O)Nc3ccc(OC(F)(F)Cl)cc3)cc2-c2cncnc2)C1 [Example 177, (S)-6-(3-(Aminomethyl)pyrrolidin-1-yl)-N-(4-(chlorodifluoromethoxy)phenyl)-5-(pyrimidin-5-yl)nicotinamide]
3 nM	1.2 nM	O=C(Nc1ccc(OC(F)(F)F)cc1)c1cnc(N2CC[C@@H](O)C2)c(-c2ccc(F)nc2)c1 [Example 47, (R)-6′-Fluoro-2-(3-hydroxypyrrolidin-1-yl)-N-(4-(trifluoromethoxy)phenyl)-[3,3′-bipyridine]-5-carboxamide]
2 nM	1.4 nM	N#Cc1ccncc1-c1cc(C(=O)Nc2ccc(OC(F)(F)F)cc2)cnc1N1CC[C@@H](O)C1 [Example 240, (R)-4′-Cyano-2-(3-hydroxypyrrolidin-1-yl)-N-(4-(trifluoromethoxy)phenyl)-[3,3′-bipyridine]-5-carboxamide]
8 nM	0.9 nM	N#Cc1cncc(-c2cc(C(=O)Nc3ccc(SC(F)(F)F)cc3)cnc2N2CC[C@H](CO)C2)c1 [Example 191, (S)-5′-Cyano-2-(3-(hydroxymethyl)pyrrolidin-1-yl)-N-(4-((trifluoromethyl)thio)phenyl)-[3,3′-bipyridine]-5-carboxamide]
2 nM	1.3 nM	CN(CCO)c1ncc(C(=O)Nc2ccc(SC(F)(F)F)cc2)cc1-c1cncnc1 [Example 192, 6-((2-Hydroxyethyl)(methyl)amino)-5-(pyrimidin-5-yl)-N-(4-((trifluoromethyl)thio)phenyl)nicotinamide]
< 3 nM	0.8 nM	Cc1ccc(-c2cc(C(=O)Nc3ccc(OC(F)(F)F)cc3)cnc2N2CC[C@@H](O)C2)cn1 [Example 41, (R)-2-(3-Hydroxypyrrolidin-1-yl)-6′-methyl-N-(4-(trifluoromethoxy)phenyl)-[3,3′-bipyridine]-5-carboxamide]
< 3 nM	0.3 nM	O=C(Nc1ccc(OC(F)(F)F)cc1)c1cnc(N2CC[C@H](CO)C2)c(-c2cnc(Cl)c(F)c2)c1 [Example 89, (S)-6′-Chloro-5′-fluoro-2-(3-(hydroxymethyl)pyrrolidin-1-yl)-N-(4-(trifluoromethoxy)phenyl)-[3,3′-bipyridine]-5-carboxamide]
< 3 nM	< 0.13 nM	O=C(Nc1ccc(SC(F)(F)F)c(F)c1)c1cnc(N2CC[C@@H](O)C2)c(-c2cncnc2)c1 [Example 205, (R)—N-(3-Fluoro-4-((trifluoromethyl)thio)phenyl)-6-(3-hydroxypyrrolidin-1-yl)-5-(pyrimidin-5-yl)nicotinamide]
0.4 nM	5.5 nM	O=C(Nc1ccc(OC(F)(F)F)cc1)c1ccc(N2CCOC2=O)c(-c2cncnc2)c1 [Example 117, 4-(2-Oxooxazolidin-3-yl)-3-(pyrimidin-5-yl)-N-(4-(trifluoromethoxy)phenyl)benzamide]
< 3 nM	0.8 nM	O=C(Nc1ccc(OC(F)(F)F)cc1)c1cnc(N2CC[C@@H](O)C2)c(-c2ccc(CO)nc2)c1 [Example 42, (R)-6′-(Hydroxymethyl)-2-(3-hydroxypyrrolidin-1-yl)-N-(4-(trifluoromethoxy)phenyl)-[3,3′-bipyridine]-5-carboxamide]
